In publication PMC10714399, “Open Source Antibiotics: Simple Diarylimidazoles Are Potent against Methicillin-Resistant Staphylococcus aureus” (ACS Infectious Diseases, 2023):
Converted amounts (≈) assume the structure as drawn. “Also recorded” adds a separate entry of the source. Read-outs that look alike come from different tables or passages of the source.

How the values were obtained:
[1] = Human plasma protein binding (PPB); format: in vitro ADME; conditions: human, plasma
Aqueous solubility = format: physicochemical; conditions: for solubility: thermodynamic from solid
[2] = HEK293 toxicity, 96-well dose-response (UCL; MTT or resazurin, with or without recovery); format: cell-based, human; conditions: human, HEK293 cells; for CC50 at 24 h: read-out: HEK293 CC50; for Dmax spread between recovery and non-recovery conditions at 24 h, 32 μg/mL: read-out: spread of Dmax values comparing recovery and non-recovery conditions
Description: (§1) The importance of balancing potency vs MRSA and cytotoxicity led us to examine a subset of compounds more thoroughly for toxicity against human embryonic kidney cell line HEK293. […] Dmax is a parameter that quantifies toxicity at the highest tested concentration (32 μg/mL for all compounds), calculated as reciprocal percentage of viable cells (100 – viability%), where cells either were allowed to recover or viability was measured immediately after treatment. […] Our efforts focused on trying to replicate the original toxicity experiments (by CO-ADD) with tamoxifen using a protocol modified for use with 96-well plates. Given the variability of protocols and results in the literature,[28] it was important to compare with a standard protocol we have reliably used in our own laboratories.[29]−[33] […] Truly “non-toxic” compounds might be expected to show Dmax < 50% for all experiment variations, e.g., 861. […] A large spread of Dmax values comparing recovery and non-recovery conditions larger than 20% is perhaps indicative of a mechanism of toxicity that persists beyond exposure, i.e., cytotoxic compounds that continue to induce toxicity as cells recover and restart dividing, for example, compounds 865, 870, 871, 980, and 981. […] This variability could be driven by interference of the compounds with the fluorescence readout or resorufin build-up as previously described.[27]
(§2) HEK293 cells (ATCC, UK) at passage 32 were a kind gift from Dr. Ben Allsop from the Translational Research Office at University College London. Cells were tested for mycoplasma using a MycoAlert Detection Kit (Lonza, Switzerland) as per manufacturer instructions, frozen stocks were stored in liquid nitrogen, and cells were re-tested whenever a new aliquot was thawed.
(§3) Cells were maintained in DMEM (Sigma-Aldrich, UK) supplemented with 10% heat-inactivated FBS (Sigma-Aldrich, UK), 1% GlutaMax (ThermoFisher, UK), and 1% sodium pyruvate (Lonza, UK) without antibiotics in an incubator at 37 °C and 5% CO2. Media was changed every 2 days, and cells were passaged every 3–4 days at a subcultivation ratio of 1:10, by detaching the cells with phenol-free TrypLE Express (ThermoFisher, UK), after washing with HBSS Ca^2+/Mg^2+ (ThermoFisher, UK). Up to 55 passages were used throughout the experiments.
(§4) (a) Cell seeding: At subculture, a dilute solution of cells was counted using Trypan Blue (Sigma-Aldrich, UK) and a hemocytometer. Cells were further diluted to 7000 or 50 000 cells/mL for experiments.
(§5) For recovery experiments, 700 cells (100 μL) were seeded in 96-well plates and incubated for 48 h while cells reached exponential phase.
(§6) For non-recovery experiments, 5000 cells (100 μL) were seeded in 96-well plates and incubated for 48 h while cells reached confluence. This is the same number of cells as per the CO-ADD protocol where 384-well plates were used, but we extended the growth time to 48 h to produce a similar confluency.
(§7) Stock solutions were diluted 100 times (to 1% DMSO) to 32 μg/mL in full medium (vortexed briefly) and then serially diluted using a digital pipet (Explorer, Eppendorf, Germany) at a dilution factor of 2 to a final concentration of […].
(§8) (c) Dosing experiments: At the specified time after seeding, media was removed from cells, cells were washed with HBSS Ca^2+/Mg^2+ (100 μL), and 100 μL of diluted compounds were added as per Supporting Information - Biology, Figure S4, and incubated for 24 h.
(§9) After treatment, solutions were removed, and cells were washed with HBSS Ca^2+/Mg^2+. For non-recovery experiments, viability was determined immediately as described below.
(§10) For recovery experiments, fresh media was added to plates (100 μL) and cells were returned to the incubator for another 72 h, after which viability was recorded as described below.
(§11) i. MTT assay: 3-[4,5-Dimethylthiazol-2-yl]-2,5-diphenyltetrazolium bromide (MTT) (Sigma-Aldrich, UK) was dissolved in sterile PBS at 5 mg/mL with sonication (20 min), protected from light. […]

[3] = Human liver microsome intrinsic clearance; format: in vitro ADME; conditions: human liver microsomes, NEU; for microsomal CLint: read-out: HLM CLint (NEU)
[4] = Rat hepatocyte intrinsic clearance; format: in vitro ADME; conditions: rat hepatocytes, NEU; for hepatocyte CLint: read-out: Rat Hep CLint (NEU)
LogD7.4 (Chrom Log D) = format: physicochemical; conditions: chromatographic system (Chrom Log D); pH 7.4, NEU; read-out: LogD 7.4 (NEU)
Source text: To guide our initial SAR exploration work, we obtained liver microsomal intrinsic clearance data for 5 of the 18 compounds assayed by CO-ADD (Supporting Information - CDCO Report and Supporting Information - Biology). We then acquired intrinsic clearance (CLint), plasma protein binding (PPB), and solubility data on further compounds throughout the SAR campaign (Supporting Information - Biology, Tables S3 and S4). […] The more polar compounds (lower LogD) had reduced PPB and were more metabolically stable.
Table S4. ADME and Pharmacokinetics: compounds only appearing in the Supplementary […]
MRSA Aqueous HLM CLint Rat Hep CLint
Cmpd MIC Solubility Human PPB (%) (µL/min/mg (µL/min/10x6 LogD7.4
(µg/mL) (µM) protein) cells)
(§12) ADME and toxicity for compounds were measured according to procedures outlined in the manuscript submitted in parallel to this one;2 other procedures were used for those compounds analysed by Monash University (in vitro ADME) or UCL (toxicity), both described in the main

[5] = system: Enterococcus faecalis ATCC 51299 (vanA-positive; vancomycin-resistant); assay: In vitro antibacterial activity, MIC (UCL), VRE; format: cell-based
Outline: (§13)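 MIC determined over 32–0.03 μg/mL in 2-fold steps, with at most 2% DMSO, in isosensitest broth. Organisms were suspended in PBS to A600 0.1 (about 1 × 10^8 CFU/mL), diluted 1:100 and inoculated; vancomycin served as QC compound.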

[6] = system: Staphylococcus aureus NCTC 13373 (mecA-positive; methicillin-resistant); assay: In vitro antibacterial activity, MIC (UCL School of Pharmacy assay), MRSA; format: cell-based; conditions: for MIC: Staphylococcus aureus
Outline: as §13

[7] = system: S. aureus ATCC 25923 (methicillin-susceptible); assay: In vitro antibacterial activity, MIC (UCL), MSSA; format: cell-based, Staphylococcus aureus; conditions: Staphylococcus aureus
Outline: as §13

HEK293 cells = assay: HEK293 toxicity, 96-well dose-response (UCL; MTT or resazurin, with or without recovery); format: cell-based, human
Description: as §1, §2, §3, §4, §5, §6, §7, §8, §9, §10, §11

[8] = system: PMM (primary mouse macrophages); assay: Toxicity against PMM; format: cell-based
Description: as §12

[9] = system: MRC-5SV2 (human lung fibroblast cell line); assay: Toxicity against MRC-5SV2; format: cell-based
Description: as §12

[10] = human plasma, NEU, read-out: Human PPB (NEU) (converted)
[11] = NEU, read-out: Aqueous Solubility (NEU)

SMILES	fraction unbound [1, 10]	solubility (Aqueous solubility; [11]) [µM]	CC50 at 24 h [2] [µg/mL]	MIC ([5]; read-out: VRE MIC (UCL)) [µg/mL]	MIC ([6]; UCL, read-out: MRSA MIC (UCL)) [µg/mL]	MIC ([5]; read-out: VRE MIC) [µg/mL]	MIC ([6]; read-out: MRSA MIC) [µg/mL]	Dmax spread between recovery and non-recovery conditions at 24 h, 32 μg/mL [2] [%]	further results
c1cncc(-c2nc3n(c2-c2ccc4occc4c2)CCC3)c1 [OSA_000861]	0.015	344 (≈ 104 µg/mL)	> 32	> 32	> 32	–	–	–	microsomal CLint [3]: 35.5 µL/min/mg; hepatocyte CLint [4]: 40.8 µL/min/1e6 cells; chromatographic logD (LogD7.4 (Chrom Log D)): 3.2
c1cc(-c2nc3n(c2-c2ccc4occc4c2)CCC3)ccn1 [OSA_000862]	0.017	89 (≈ 26.8 µg/mL)	> 32	> 32	> 32	–	–	–	microsomal CLint [3]: 36.8 µL/min/mg; hepatocyte CLint [4]: 44.5 µL/min/1e6 cells; chromatographic logD (LogD7.4 (Chrom Log D)): 3.2
Cc1ccc(-c2c(-c3ccccn3)nc3n2CCC3)cc1 [OSA_000865]	0.084	–	2.1 (≈ 7.63 µM)	16 (≈ 58.1 µM)	4 (≈ 14.5 µM)	–	–	–	MIC ([7]; read-out: MSSA MIC (UCL)): 1 µg/mL (≈ 3.63 µM); Aqueous Solubility (NEU) (Aqueous solubility; NEU): 32 µM; HLM CLint (NEU) [3]: 82 uL/min/mg protein; Rat Hep CLint (NEU) [4]: 49.2 uL/min/10x6 cells
c1ccc(-c2nc3n(c2-c2ccc4occc4c2)CCC3)cc1 [OSA_000869]	0.0031	21 (≈ 6.31 µg/mL)	13.7 (≈ 45.6 µM)	> 32	> 32	–	–	–	microsomal CLint [3]: 224 µL/min/mg; hepatocyte CLint [4]: 34.5 µL/min/1e6 cells; chromatographic logD (LogD7.4 (Chrom Log D)): 4.2
c1ccc(-c2c(-c3ccccn3)nc3n2CCC3)cc1 [OSA_000870]	0.15	179 (≈ 46.8 µg/mL)	3.6 (≈ 13.8 µM)	> 32	32 (≈ 122 µM)	–	–	–	HLM CLint (NEU) [3]: 64 uL/min/mg protein; Rat Hep CLint (NEU) [4]: 25.9 uL/min/10x6 cells
c1ccc(-c2nc3ccccn3c2-c2ccc3sccc3c2)nc1 [OSA_000871]	0.0074	6 (≈ 1.96 µg/mL)	5.5 (≈ 16.8 µM)	8 (≈ 24.4 µM)	4 (≈ 12.2 µM)	–	–	–	microsomal CLint [3]: 105 µL/min/mg; hepatocyte CLint [4]: > 300 µL/min/1e6 cells; chromatographic logD (LogD7.4 (Chrom Log D)): 3.3
c1cncc(-c2nc3n(c2-c2ccc4occc4c2)CCC3)c1 [compound 861]	–	–	–	–	–	> 32	> 32	–	HEK293 toxicity classification, in words (HEK293 cells): least toxic; Dmax (100 – viability%) (HEK293 cells; at highest tested concentration 32 μg/mL, all experiment variations): < 50%; activity against MRSA, in words [6]: inactive
c1cc(-c2nc3n(c2-c2ccc4occc4c2)CCC3)ccn1 [compound 862]	–	–	–	–	–	> 32	> 32	–	HEK293 toxicity classification, in words (HEK293 cells): least toxic; also recorded: non-toxic; toxicity in the acute exposure by MTT (HEK293 cells; no recovery, MTT): more than 50%; activity against MRSA, in words [6]: inactive
Cc1ccc(-c2c(-c3ccccn3)nc3n2CCC3)cc1 [compound 865]	–	–	–	–	–	16 (≈ 58.1 µM)	4 (≈ 14.5 µM)	> 20	MIC ([7]; read-out: MSSA MIC): 1 µg/mL (≈ 3.63 µM); fraction unbound ([1]; read-out: Human PPB (converted)): 0.08; solubility (Aqueous solubility; read-out: Aqueous Solubility): 32 µM (≈ 8.81 µg/mL); MIC ([6]; 16 h, read-out: MRSA MIC): 4 µg/mL (≈ 14.5 µM)
c1ccc(-c2nc3n(c2-c2ccc4occc4c2)CCC3)cc1 [compound 869]	–	–	–	–	–	> 32	> 32	–	HEK293 toxicity classification, in words (HEK293 cells): least toxic; spread of Dmax values comparing recovery and non-recovery conditions (HEK293 cells; 32 μg/mL): small difference; activity against MRSA, in words [6]: inactive
c1ccc(-c2c(-c3ccccn3)nc3n2CCC3)cc1 [compound 870]	–	–	–	–	–	> 32	32 (≈ 122 µM)	> 20	–
c1ccc(-c2nc3ccccn3c2-c2ccc3sccc3c2)nc1 [compound 871]	–	–	–	–	–	8 (≈ 24.4 µM)	4 (≈ 12.2 µM)	> 20	–
COc1ccc2nc(-c3ccccn3)c(N(C)c3ccc(F)cc3)n2c1 [compound 980]	–	–	–	–	–	8 (≈ 23 µM)	4 (≈ 11.5 µM)	> 20	PMM TC50 [8]: 2.8 µg/mL; MIC ([7]; read-out: MSSA MIC): 4 µg/mL (≈ 11.5 µM); MRC5 TC50 [9]: 0.7 µg/mL
CCN(c1ccc(F)cc1)c1c(-c2ccccn2)nc2ccccn12 [compound 981]	–	–	–	–	–	8 (≈ 24.1 µM)	2 (≈ 6.02 µM)	> 20	PMM TC50 [8]: 2.7 µg/mL; MIC ([7]; read-out: MSSA MIC): 2 µg/mL (≈ 6.02 µM); MRC5 TC50 [9]: 1.6 µg/mL
